In patent US5304474A, “Hydrophobic peptide esters and amides” (Board of Regents, The University of Texas System, priority 1991, dated 1994):

Experiments:
[1] = system: Daudi; test: 51Cr release toxicity assay; type: cell-based, human; details: broad range of concentrations
Excerpt: (§1) HS-Sultan, a human plasma cell line (Goldblum et al. (1973) Proc. Seventh Leucocyte Culture Conference, ed by Daguilland, Acad. Press N.Y. pp 15-28), Daudi, a B lymphoblastoid cell line (Klein et al. (1968) Cancer Res. V 28, p 1300), MoLT-4, an acute lymphoblastic T-cell leukemia line (Monowada et al. (1972) J. Nat'l Canc. Inst. V 49, p 891), and U-937, a human monocyte-like cell line (Koren et al. (1979) Nature V 279, p 891) were obtained from the American Type Culture Collection, Rockville, Md. These lines as well as HEp-2 a human epidermoid carcinoma line (a generous gift of Dr. R. Sontheimer, UTHSCD); Currie, a human renal cell carcinoma line (a generous gift of Dr. M. Prager, UTHSCD); and K562, a human erythroleukemia line (a generous gift of Dr. M. Bennett, UTHSCD) were maintained in culture in medium RMPI supplemented with 10% FBS. Human dermal fibroblasts (a generous gift of Dr. T. Geppert, UTHSCD) were serially passaged in culture as well while human umbilical vein endothelial cells (a generous gift of Dr. A. Johnson, UTHSCD) were used after one subculture Epttein Barr virus (EBV) transformed B lymphoblastoid cell lines JM.6 and SM.4 (kindly provided by Dr. J. Moreno, UTHSCD) and cloned EBV transformed B cell lines SDL-G2 and D8-219 (a generous gift of Drs. L. Stein and M. Dosch, Hospital for Sick Children, Toronto, Canada) were maintained in culture in medium RPMI supplemented with 10% FBS.
(§2) In some experiments, toxicity of Leu-Leu-OMe for a variety of cell populations was assessed by ^51 Cr release In assays where cells obtained from suspension culture were to be used, cells were labeled with Na2^51 CrO4 (ICN, Plainview, N.Y.) for 60-90 minutes at 37° C. and then washed three times. Cells were then suspended in PBS (2.5×10^6 /ml) and incubated in microtiter plates, 50 microL/well with indicated concentrations of Leu-Leu-OMe for 15 minutes at room temperature. […] Following ^51 Cr labeling, wells were thoroughly washed and varying concentrations of Leu-Leu-OMe added in 50 microL PBS and the plates incubated for 15 minutes at room temperature.
(§3) Following such initial serum-free incubations, 200 microL/well of medium RPMI containing 10% FBS were added and the plates incubated for another 4 hours prior to removal of 100 microliters of supernatant. Radioactivity in the supernatant was measured in an auto-gamma scintillation spectrometer (Packard Instrument Co., Downers Grove, Ill.). The percent specific release was calculated from the formula: [formula] in which maximal release refers to cpm obtained in wells containing 50% lysing agent (American Scientific Products, McGraw Park, Ill.) and spontaneous release refers to cpm released by cells incubated in control medium in the absence of Leu-Leu-OMe or the lysing agent. Only experiments in which spontaneous release was […] were used for subsequent data interpretation.
(§4) In developing the data expressed in FIG. 7, cells (2.5×10^6 /ml) were exposed to the indicated concentrations of Leu-Leu-OMe for 15 minutes at room temperature, then specific ^51 Cr release during the next four hours was assessed. Data for the EBV transformed lines JM.6, SDL-G2, D8-219, and SM.4, respectively, are shown in order from top to bottom.

[2] = system: EBV-transformed B cell lines or clones; test: 51Cr release toxicity assay; type: cell-based, human
Excerpt: as §1, §2, §3, §4

[3] = system: HS-Sultan; test: 51Cr release toxicity assay; type: cell-based, human; details: broad range of concentrations
Excerpt: as §1, §2, §3, §4

[4] = system: K562; test: 51Cr release toxicity assay; type: cell-based, human
Excerpt: as §1, §2, §3, §4

[5] = system: MoLT-4; test: 51Cr release toxicity assay; type: cell-based, human; details: broad concentration range
Excerpt: as §1, §2, §3, §4

[6] = system: U937; test: 51Cr release toxicity assay; type: cell-based, human
Excerpt: as §1, §2, §3, §4

[7] = system: precursors of activated NK (AcNK); test: Elimination of activated NK-like cells (6 day MLC, lysis of K562); type: cell-based, human
Experimental: Experiments were also designed to assess the relative sensitivity of NK and CTL to Leu-Leu-OMe. In the studies detailed in FIGS. 8 and 9, cytotoxicity assays were performed over a broad range of E:T ratios and units of lytic activity arising from equal numbers of responding lymphocytes were calculated and compared. […] Only after exposure to greater than 250 micromolar Leu-Leu-OMe were all CTL precursors eliminated.
Non-adherent lymphocytes (2.5×10^6 /ml) were incubated with the indicated concentrations of Leu-Leu-OMe for 15 minutes. Cells were then washed and either placed in mixed lymphocyte culture or assayed for specific lysis of K562 cells (NK). After 6 day MLC, cells were assayed for specific lysis of allogeneic stimulator lymphoblasts (CTL) or K562 (AcNK). Data are expressed as percent of control lytic units (mean+SEM, n=6).
Both values were also higher than the mean concentration of Leu-Leu-OMe required to diminish spontaneous NK lytic activity by 75% (35 micromolar±4 micromolar). […] Thus, only after MLC activation did CTL display a sensitivity to Leu-Leu-OMe toxicity that was equal to that of NK cells.

[8] = system: hemopoietic stem cells; test: Stem cell function: splenic 125I-UdR uptake 5 d after transfer into irradiated syngeneic recipients; type: in vivo, mice; details: 250 micro-M
Experimental: Bone marrow cells or marrow and spleen cell mixtures were incubated in PBS with or without 250 micro-M Leu-Leu-OMe as above and then infused into 950 cGy irradiated syngeneic recipients. 5 d later, splenic 5-iodo-2'-deoxyuridine-^125 I (^125 I-UdR) uptake was measured as previously described (15).
To assay the effects of Leu-Leu-OMe on hemopoietic stem cells, we incubated marrow or mixtures of marrow and spleen cells in PBS with or without Leu-Leu-OMe and measured splenic ^125 I-UdR uptake 5 d after transplantation into irradiated syngeneic recipients (18). […] Since human marrow obtained for use in transplantation has variable amounts of peripheral blood contamination, we also studied the stem cell function of a mixture of murine spleen and marrow incubated with Leu-Leu-OMe. […] Histological studies were conducted of spleens from irradiated mice. B6 mice were irradiated with 950 cGy and given no marrow (irradiation control), or given syngeneic bone marrow cells that had been incubated in PBS with or without 250 micro-M Leu-Leu-OMe. 5 d later spleens were examined histologically. Irradiation control spleens were sparsely populated, with no hemopoietic elements. Recipients of marrow treated with 250 micro-M Leu-Leu-OMe had the vast majority of their splenic red pulp packed with erythroblasts, but also had numerous peritrabecular areas containing megakaryocytes and granulocytic elements.

[9] = system: human dermal fibroblasts; test: 51Cr release toxicity assay

COC(=O)[C@H](CC(C)C)NC(=O)[C@@H](N)CC(C)C [Leu-Leu-OMe, L-leucyl-L-leucine methyl ester]
51Cr release and proliferative rate [1]: no significant ^51 Cr release or alteration in subsequent proliferative rate | 51Cr release ([2]; 1 mM, some EBV lines): less than 20% | 51Cr release ([2]; 250 micromolar, other lines): 25-35% | toxicity (51Cr release) ([2]; less than 250 micromolar): no significant toxicity | 51Cr release and proliferative rate [3]: no significant ^51 Cr release or alteration in subsequent proliferative rate | 51Cr release and proliferative rate ([4]; 100 micromolar or lower): no significant ^51 Cr release or alteration in subsequent proliferative rate | 51Cr release and proliferative capacity ([4]; higher than 100 micromolar): modest amounts of ^51 Cr release and partial loss of proliferative capacity | toxicity (51Cr release) [5]: no detectable Leu-Leu-OMe toxicity over a broad concentration range | concentration above which extensive 51Cr release and no viable proliferating cell [6]: more than 250 micromolar | toxicity (51Cr release) ([6]; concentration-dependent): susceptible to concentration-dependent Leu-Leu-OMe toxicity | precursors of activated NK, lytic units ([7]; 100 micromolar, 15 minutes (FIG. 8)): totally eliminated | mean concentration required to diminish lytic activity by 75% ([7]; elimination of precursors of activated NK): 50 ± 5 µM | effect on stem cell function, in words [8]: had no deleterious effect on this measure of stem cell function | 51Cr release [9]: no significant Leu-Leu-OMe induced ^51 Cr release | subsequent proliferative capacity ([9]; 500 micromolar): had no discernible effect on subsequent proliferative capacity
